Experiments:
B16F10 cells = assay: Growth rate by Trypan blue exclusion, drug scheduling and progenies; format: cell-based, murine
Method: The standard methanethiosulfonate (MTS)-3-(4,5-dimethylthiazol-2-yl)-5-(3-carboxymethoxyphenyl)-2-(4-sulphophenyl)-2H-tetrazolium inner salt solution assay was performed in order to examine the cytotoxic/cytostatic effect of GC2 on melanoma cells. Briefly, 7.5×10^3 cells were seeded in 96-well microtiter plates (Nunc). After an overnight incubation, serial dilutions of GC2 or DTIC were added in triplicate to a final volume of 100 μl. The blank was represented by a culture medium without cells containing the highest GC2 or DTIC concentration. After 24 h of incubation 20 μl MTS was added to each well and all samples were incubated for 3 h at 37° C. An absorbance of each well was read at 450 nm in a microplate reader. A percentage of cell viability was calculated considering that 100% cell viability was represented by an absorbance of untreated samples (blank absorbance). Alternatively, the number of viable cells was determined by Trypan blue exclusion test. Melanoma cells treated with GC2 were trypsinized and cells negative for blue staining (viable cells) were counted using a hemocytometer.
In order to be successful, chemotherapy schedule can be set based on a type of targeted cells, a rate, at which the cells divide, and a time, at which a given drug is likely to be effective. Melanoma cells have versatile mechanisms to survive treatments with most chemotherapeutical drugs. Whether a specific scheduling of GC2 therapy is important was investigated by studying how a growth rate of melanoma cells is affected by incubation with a single dose of GC2 for a prolonged time period and with multiple GC2 doses freshly added every 24 h. Because of its high proliferation rate, a metastatic cell line B16F10 was selected for these experiments. The cells were cultured for 72 h under the following conditions: 1) in the absence of GC2 (control sample-C), 2) with a single GC2 dose of 6.0 μM (sample-S), and 3) with multiple GC2 doses of 6.0 μM freshly added every 24 h ([…]). A number of viable cells was determined by Trypan blue exclusion test and a growth rate was calculated in order to estimate an anti-proliferative effect of GC2. Under normal drug-free conditions, B16F10 cells approximately double their number every 24 h (FIG. 4A). Incubation with a single dose of GC2 decreased the growth rate from 2.29 to 1.26 for 24 h incubation and from 7.26 to 3.7 for 72 h incubation. […] Cells treated with GC2 freshly added every 24 h had the lowest growth rate of 2.02.
Equal numbers of B16F10 cells previously cultured for 72 h 1) without GC2 (C), 2) in the presence of a single GC2 dose of 6 μM (S) or 3) multiple GC2 doses of 6 μM freshly added every 24 h (S*) were further incubated either without GC2 (0 μM) or with a lower GC2 concentration (3 μM). At the end of a 48 h incubation period a number of viable cells was determined by Trypan blue exclusion test and a percentage of cell growth was calculated considering a cell number cultured with 3 μM of GC2 for 48 h to be 100%. Cells cultured with a single dose of GC2 for 72 h followed by 48 h without the drug proliferated at a rate of 99%. The rate decreased to 70% after the additional 48 h incubation of these cells in the presence of 3 μM GC2 (FIG. 4C). […] The lowest growth rate, (5%) was registered for the cells previously exposed to multiple doses of freshly added drug for 72 h and then further grown for 48 h in the presence of 3 μM GC2.

SKMel28 cells = assay: Acidic vesicular organelles, Lysotracker Red vital staining; format: cell-based; conditions: SKMel28, 6 μM, 3 h and 8 h
Method: Tumor cells were cultured 24 h on cover glasses, treated with GC2, and processed as described in Negroiu, G., et al. J. Biol. Chem. 278, 27035-27042, 2003. The acidic vesicular compartments were detected following incubation of live cells GC2 treated with Lysotracker® Red (0.125 μl/ml culture medium) for 30 min at 37° C. Fixed cells were incubated with the following primary antibodies: mouse anti-EEA1 (1:100), human-CD107A (anti-Lamp1) (1:50), a mouse anti-α tubulin (1:200) followed by an appropriate Alexa Fluor® 488 conjugated secondary antibodies (1:400) or with Alexa Fluor® 594 phalloidin. Finally, nuclei of fixed cells were stained with 5 mM Hoechst dye 33342. Cells were washed three times with PBS and mounted in Vectashield® mounting medium.
Acidic compartments of untreated and GC2-treated tumor cells were differentiated using a lysosomotropic agent LysoTracker® Red (LT), a marker for tracking acidic organelles in live cells. These probes can be used to investigate the acidification of lysosomes and alteration of their function or trafficking that occur in the cell. In untreated SKMel28 cells (FIG. 5Aa) the LT probe has a moderate fluorescence as fine punctate structures distributed within the entire cell cytoplasm and occasionally at the cell periphery.

[1] = system: MMP-2 secreted by T11 glioblastoma multiform cells; assay: MMP analysis by SDS-PAGE gelatin zymography; format: cell-based; conditions: 20 h
Method: T11 cells were grown in a complete DMEM medium until they reached 80% confluency. The cells were washed using DMEM medium without serum and incubated for 20 h with various concentrations of GC2 shown in preliminary experiments not to affect cell viability. The culture medium was collected, centrifuged at 2000 rpm, for 5 min, to remove the cells in suspension. The culture medium was further concentrated five times by ultrafiltration on centricon membranes (molecular weight cut off 30,000 from Milipore). Three parts of medium containing equal amounts of protein (20 μg) were mixed with one part of Laemmnli buffer without reducing agent. Samples were applied on a gel of 8% polyacrylamide impregnated with 0.5 mg/ml denaturated type I collagen (gelatin) and separated electrophoretically. […]
To investigate if GC2 treatment interferes with secretion of MMPs a glioblastoma multiform cell line, T11 previously tested for its capacity to secrete MMP-2 was used. Cells were cultured for 20 h in the presence of different concentrations of GC2, established by preliminary experiments to be nontoxic for this cell line, and medium was concentrated and analyzed by Sodium Dodecyl Sulphate PolyAcrylamide Gel Electrophoresis (SDS-PAGE) gelatin zymography. […]

Structure (SMILES): CC(=O)O.CCCCCCCCCN1[C@@H](CO)[C@@H](O)[C@H](O)[C@@H]1CCCCCCCC [GC2, (2S,3R,4R,5S)-3,4-dihydroxy-N-nonyl-5-octyl-2 hydroxymethylpyrrolidinium acetate]
- activity at 3 µM (B16F10 cells; Mus musculus, B16-F10, multiple 6 μM doses 72 h, then 48 h with 3 μM GC2, read-out: growth rate of progenies (% of control growth)): 5%
- activity at 6 µM (B16F10 cells; Mus musculus, B16-F10, single 6 μM dose 72 h, then 48 h without drug, read-out: proliferation rate of progenies (% of control growth)): 99%
- proliferation rate of progenies (% of control growth) (B16F10 cells; multiple 6 μM doses 72 h, then 48 h without drug): 43%
- growth rate (ratio of cell number to initial cell number) (B16F10 cells; multiple 6.0 μM doses freshly added every 24 h, 72 h, control 7.26): 2.02
- proliferation rate of progenies (% of control growth) (B16F10 cells; single 6 μM dose 72 h, then 48 h with 3 μM GC2): 70%
- growth rate (ratio of cell number to initial cell number) (B16F10 cells; single dose 6.0 μM, 24 h incubation, control 2.29): 1.26
- growth rate (ratio of cell number to initial cell number) (B16F10 cells; single dose 6.0 μM, 72 h incubation, control 7.26): 3.7
- Lysotracker Red probe distribution (acidic vesicles) (SKMel28 cells): accumulates in large, bright red fluorescent vesicles in a time dependent manner
- intensity of the MMP-2 band ([1]; 0.65 μM, 1.25 μM, 2.5 μM and 5 μM): decreasing in a concentration dependent manner
- MMP-2 secretion ([1]; 5 μM): total inhibition
